Values belong to the molecule of their own block, whether it stands above or below them.
Tests used:
[1] = test system: NIH3T3 transfectants that ectopically express EpCAM; assay: EpCAM-mediated growth transformation (cell numbers), NIH3T3 transfectants ectopically expressing EpCAM; type: cell-based, murine
Description: (§1) We further investigated the significance of PS activity on EpCAM-mediated growth transformation of two cell types. Murine NIH3T3 transfectants (which were grown and transfected as described in Example 1) that ectopically express EpCAM, and FaDu carcinoma cells that naturally express EpCAM were treated with the DAPT over 4 days. […] Noteworthy, besides its capacity to rescue cells from DAPT-mediated growth inhibition, the expression of EpIC-YFP did even further increase proliferation of EpCAM-expressing FaDu carcinoma cells.

[2] = test system: EpCAM-negative NIH3T3 control cells; assay: Proliferation of EpCAM-negative NIH3T3 control cells; type: cell-based, murine; details: treatment with DAPT
Description: as §1

FaDu carcinoma cells = assay: Proliferation (cell numbers) of FaDu carcinoma cells; type: cell-based, human
Description: as §1, with “cells. Also, siRNA-mediated TACE reduction of proliferation of FaDu cells was tested. […] Modest effects may be explained by the comparatively low transfection efficiency of this cell line (FIG. 3A).” for “cells.”

[3] = test system: TCF/Lef-responsive promoters in HEK293 cells; type: cell-based, human
[4] = test system: EpCAM ectodomain (EpEX) shedding in HEK293-EpCAM cells; assay: EpCAM ectodomain shedding, immunoprecipitation from conditioned supernatant of HEK293-EpCAM cells; type: cell-based, human; details: TAPI-2 40 μM, two days, versus vehicle diluent
Description: In a next step, we assessed the existence of a shed ectodomain of EpCAM. Immunoprecipitation was performed with conditioned cell-free supernatants of HEK293-EpCAM and HEK293-control transfectants using antibodies specific for the extracellular (EpEC), i.e. HO.3 (an α-EpEC antibody; kind gift from Dr. Horst Lindhofer, TrionPharma, Munich, Germany) and intracellular (EpIC) domain of EpCAM (see above) essentially as described above. For a positive control, immunoprecipitation was performed in parallel with whole cell lysate of HEK293-EpCAM cells.
(§2) Next, HEK293 cells were transiently transfected with EpCAM-YFP, treated with 40 μM TACE inhibitor TAPI-2 (Biomol, Germany) and EpIC formation monitored as described above for the inhibition of presenilin-2. […] Finally, the effect of TACE inhibition on the generation of the EpCAM ectodomain was assessed. HEK293-EpCAM cells were cultured two days in the presence or absence of TAPI-2 (40 μM) and cell-free conditioned supernatants were collected upon centrifugation (13,000 rpm, 10 min, 4° C.). Thereafter, immunoprecipitations were conducted with antibodies specific for EpEX as described above. […] In all cases, EpEX was devoid of the EpIC domain as it no longer reacted with the EpIC-specific antibody. […]

[5] = test system: EpCAM-YFP cleavage in HEK293 cells; assay: EpIC formation (EpCAM cleavage) by immunoblot in HEK293 cells transiently transfected with EpCAM-YFP; type: cell-based, human; details: for EpIC cleavage / release of EpIC-YFP from EpCAM-YFP: single cells incubated with recombinant EpEX, monitored over time
Description: In the beginning of the study nothing was known about the molecular mechanisms underlying the signalling mechanisms of EpCAM. In order to test for potential EpCAM cleavage, full-length EpCAM was C-terminally fused to the yellow fluorescence protein to generate EpCAM-YFP. Similarly, a potential intracellular domain of EpCAM (EpIC), starting with serine^289, was fused to the YFP moiety to generate EpIC-YFP. For this purpose, EpCAM or EpIC cDNA sequences were cloned into peYFP-N1 (BD Biosciences, Heidelberg Germany). […] HEK293 cells are human embryonic kidney cells, which were cultured in standard DMEM containing 10% fetal calf serum and passaged three times per week. Transfection was carried out with MATra reagent (IBA, Göttingen, Germany) in six-well plates (5×10^5 cells/well) according to the manufacturer's protocol. One microgram of plasmid DNA was transfected per sample for a time period of 24 h. For immunoblot analysis, 1×10^6 cells were lysed in 100 μl lysis buffer (TBS/1% triton and protease inhibitors). Lysates were pre-cleared upon centrifugation (13.000 rpm, 4° C., 10 min), separated upon SDS-PAGE, and transferred onto PVDF membranes (Millipore, Bedford, US). The expression of both proteins was assessed upon immunobloting with EpIC- (A20 or 1144, which are α-EpIC antibodies; Santa Cruz Biotech, USA and Epitomics, USA) and YFP-specific antibodies in combination with horseradish peroxidase (HRP)-conjugated secondary antibodies and the ECL reagent (Amersham Biosciences).
The interaction of EpCAM with PS-2 and TACE indicates an involvement of these proteases in the proteolytic processing of EpCAM. To confirm this, HEK293 cells were transiently transfected with EpCAM-YFP expression plasmid. Briefly, 5×10^5 cells were plated in 6-well plates and transiently transfected 24 h later with 1 μg plasmid DNA using the MATra transfection reagent (IBA, Göttingen, Germany—1 μl reagent per 1 μg DNA). Transiently transfected HEK293 cells were treated with 60 nM of the γ-secretase inhibitor Compound E (Alexis Biochemicals, Germany) over a time period of two days. Proteins were separated by SDS-PAGE (30 mA/gel, 10% polyacrylamid gel), transferred onto PVDF membranes (Millipore, Bedford, US). Cleavage of EpIC was assessed with an EpIC-specific antibody (1144, Epitomics, USA) in a time kinetic. Treatment of transfected cells with compound E led to the reduced formation of EpIC along with the accumulation of intermediate cleavage products of EpCAM with a molecular weight of 33-37 kDa (FIG. 2C). These intermediates most likely represent EpCAM molecules lacking the ectodomain but which were not cleaved at the intracellular site. […] Thus, inhibition of presenilins has an impact on EpCAM signaling capacity.
as §2

[6] = test system: EpEX shedding in FaDu cells; assay: EpEX shedding by FaDu cells expressing endogenous EpCAM; type: cell-based, human; details: treated with TAPI-2
Description: The soluble ectodomain EpEX was detected in cell-free supernatants FaDu cells (Experiment was carried out as described for HEK293 cells).
Next, HEK293 cells were transiently transfected with EpCAM-YFP, treated with 40 μM TACE inhibitor TAPI-2 (Biomol, Germany) and EpIC formation monitored as described above for the inhibition of presenilin-2. […] Finally, the effect of TACE inhibition on the generation of the EpCAM ectodomain was assessed. HEK293-EpCAM cells were cultured two days in the presence or absence of TAPI-2 (40 μM) and cell-free conditioned supernatants were collected upon centrifugation (13,000 rpm, 10 min, 4° C.). Thereafter, immunoprecipitations were conducted with antibodies specific for EpEX as described above. […] In all cases, EpEX was devoid of the EpIC domain as it no longer reacted with the EpIC-specific antibody. Ectodomain shedding may thus be a basic requirement for the cleavage of EpIC, as is the case for certain other receptors (Medina and Dotti, 2003, Cell Signal 15: 829-841).

[7] = molecular target: EpCAM (epithelial cell adhesion molecule), full-length (human) (UniProt P16422); assay: cell-based or functional assay
[8] = test system: endogenous EpCAM in FaDu cells; assay: EpIC retention in the plasma membrane of isolated FaDu cells treated with EpEX; type: cell-based, human
Description: In search for inducers of EpCAM signaling, we investigated the possibility that EpEX serves as a soluble ligand for EpCAM. EpCAM was described as a homophilic adhesion molecule, which can confer intra- and intercellular adhesion via two distinct, cystein-rich extracellular domains. […] HEK293 cells were plated as single cells, transfected with EpCAM-YFP expression vector, and incubated with recombinant EpEX. EpIC formation was then monitored over time by immunoblotting (see above). […] This observation was further corroborated in carcinoma cells with respect to the cleavage of endogenous EpCAM molecules. […] In the absence of EpEX in the culture medium, a mean of 74% of single cells retained EpIC in the plasma membrane, while only 39% of the cells did so following treatment with EpEX.

[9] = molecular target: T1, EpCAM (epithelial cell adhesion molecule), full-length (human, UniProt P16422 24-314); assay: cell-based or functional assay
T1 sequence (looked up): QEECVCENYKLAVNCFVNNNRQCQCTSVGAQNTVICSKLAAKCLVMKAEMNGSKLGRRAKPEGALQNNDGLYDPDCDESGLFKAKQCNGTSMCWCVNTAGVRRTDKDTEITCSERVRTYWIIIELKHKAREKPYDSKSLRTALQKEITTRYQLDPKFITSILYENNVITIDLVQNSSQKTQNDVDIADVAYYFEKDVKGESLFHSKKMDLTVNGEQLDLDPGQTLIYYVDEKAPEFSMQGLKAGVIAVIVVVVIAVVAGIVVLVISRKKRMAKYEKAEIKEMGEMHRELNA

[10] = DAPT over 4 days, data not shown
[11] = DAPT plus EpIC-YFP expression (rescue)

Molecule: C[C@H](NC(=O)Cc1cc(F)cc(F)c1)C(=O)N[C@H](C(=O)OC(C)(C)C)c1ccccc1 [DAPT, N—[N-(3,5-difluorophenacetyl)-L-alanyl]-(S)-phenyl-glycine t-butyl ester]
EpCAM-mediated growth transformation (cell numbers) [1, 10]: substantially inhibited | cell numbers under DAPT with expression of EpIC-YFP [1, 11]: restored cell numbers to the level of untreated cells | cell proliferation [2]: remained unaffected | EpCAM-mediated growth transformation (cell numbers) (FaDu carcinoma cells; [10]): substantially inhibited | cell numbers under DAPT with expression of EpIC-YFP (FaDu carcinoma cells; [11]): restored cell numbers to the level of untreated cells

Molecule: [Cl-].[Li+] [lithium chloride]
mean induction of TCF/Lef [3]: 2.5 fold

Molecule: CC(C)C[C@H](CC(=O)NO)C(=O)N[C@H](C(=O)N[C@@H](C)C(=O)NCCN)C(C)(C)C [TAPI-2]
ectodomain shedding in the cell culture supernatant [4]: strong reduction of ectodomain shedding | EpIC cleavage ([5]; 40 μM TAPI-2): substantial reduction of EpIC cleavage | c-Myc induction ([5]; 40 μM TAPI-2): decrease in c-Myc induction | formation of EpCAM intermediates ([5]; 40 μM TAPI-2): no effect whatsoever | EpEX shedding [6]: significant reduction of EpEX shedding

single FaDu cells retaining EpIC in the plasma membrane, following treatment with EpEX [7]: 39% | single FaDu cells retaining EpIC in the plasma membrane, in the absence of EpEX (control) [7]: 74%
Molecule: recombinant EpCAM extracellular domain EpEX (EpEXrec) (from UniProt P16422 24-265) (ligand)

B1: EpEXrec: recombinant EpCAM extracellular domain EpEX (protein)
chain: QEECVCENYKLAVNCFVNNNRQCQCTSVGAQNTVICSKLAAKCLVMKAEMNGSKLGRRAKPEGALQNNDGLYDPDCDESGLFKAKQCNGTSMCWCVNTAGVRRTDKDTEITCSERVRTYWIIIELKHKAREKPYDSKSLRTALQKEITTRYQLDPKFITSILYENNVITIDLVQNSSQKTQNDVDIADVAYYFEKDVKGESLFHSKKMDLTVNGEQLDLDPGQTLIYYVDEKAPEFSMQGLK
EpIC cleavage / release of EpIC-YFP from EpCAM-YFP [5]: time-dependent induction of EpIC cleavage | single cells that retained EpIC in the plasma membrane (mean) ([8]; after treatment with EpEX, 74% in the absence of EpEX): 39% | EpIC immunoreactivity at the site of the plasma membrane ([8]; isolated FaDu cells treated with EpEX): significant loss

B2: heat-treated EpEX: heat-treated recombinant EpCAM ectodomain, used as inactive control (protein, UniProt P16422 24-265, looked up)
extracellular domain: B1 chain
modifications: extracellular domain heat-treated
EpIC cleavage / release of EpIC-YFP from EpCAM-YFP [5]: did not result in a release of EpIC-YFP

cell numbers at day five of treatment with EpCAM- or FHL2-specific siRNA against control siRNA [9]: 2.5 fold lower
B3: four and a half LIM domain protein FHL2 (other, human, UniProt Q14192 1-279, looked up)
chain: MTERFDCHHCNESLFGKKYILREESPYCVVCFETLFANTCEECGKPIGCDCKDLSYKDRHWHEACFHCSQCRNSLVDKPFAAKEDQLLCTDCYSNEYSSKCQECKKTIMPGTRKMEYKGSSWHETCFICHRCQQPIGTKSFIPKDNQNFCVPCYEKQHAMQCVQCKKPITTGGVTYREQPWHKECFVCTACRKQLSGQRFTARDDFAYCLNCFCDLYAKKCAGCTNPISGLGGTKYISFEERQWHNDCFNCKKCSLSLVGRGFLTERDDILCPDCGKDI

From patent US20100226922A1, “SPECIFIC PROTEASE INHIBITORS AND THEIR USE IN CANCER THERAPY” (priority 2006, published 2010)
